Laboratory results published in ChEMBL document CHEMBL6074685, “Design, synthesis and biological evaluation of novel diaryl-substituted fused nitrogen heterocycles as tubulin polymerization inhibitors to overcome multidrug resistance in vitro and in vivo” (Eur J Med Chem, 2025).
Activity calls are given as the source filed them. The calls are words filed in the database; no cut-off is given here.

What was measured:
A549/TR [1] = test: Effect on P-gp protein level in human A549/T cell at 62.5 to 500 nM measured at 12 hrs by immunoblotting analysis; assay type: functional, cell-based; details: dose 62.5-500 nM
A549/TR [2] = test: Induction of cell cycle arrest in human A549/T cell assessed as accumulation of cells at G2/M phase by RNAse A/PI-staining based flow cytometric analysis; assay type: functional; details: dose 25-100 nM
[3] = Toxicity in BALB/c mouse implanted with human A549/T cell assessed as change in body weight at 30 mg/kg, ip administered every 2 days; assay type: organism-based; details: in vivo, 48 h, time 2 day
[4] = Toxicity in BALB/c mouse implanted with human A549/T cell assessed as Plate-letocrit at 30 mg/kg, ip administered every 2 days and measured after 2 weeks (reference value: 0.549%); assay type: organism-based; details: in vivo, 336 h
[5] = Metabolic stability in mouse liver microsome assessed as intrinsic clearance measured upto 50 mins by LC-MS/MS analysis; assay type: ADME; details: liver microsomes, read-out: CLH
[6] = Toxicity in BALB/c mouse implanted with human A549/T cell assessed as red blood cell distribution width-cell size at 15 mg/kg, ip administered every 2 days and measured after 2 weeks (reference value: 12.1 fL); assay type: organism-based; details: in vivo, 336 h
[7] = Toxicity in BALB/c mouse implanted with human A549/T cell assessed as lymphocyte count at 15 mg/kg, ip administered every 2 days and measured after 2 weeks (reference value: […]); assay type: organism-based; details: in vivo, 336 h
A549/TR [8] = test: Induction of apoptosis in human A549/T cell at 62.5 nM incubated for 48 hrs by V-FITC/PI staining based flow cytometry analysis relative to control; assay type: functional
[9] = Toxicity in BALB/c mouse implanted with human A549/T cell assessed as WBC count at 15 mg/kg, ip administered every 2 days and measured after 2 weeks (reference value: 1.3 10^9/L); assay type: organism-based; details: in vivo, 336 h
[10] = Toxicity in BALB/c mouse implanted with human A549/T cell assessed as platelet count at 15 mg/kg, ip administered every 2 days and measured after 2 weeks (reference value: 539 […]); assay type: organism-based; details: in vivo, 336 h
[11] = Toxicity in BALB/c mouse implanted with human A549/T cell assessed as lymphocyte count at 15 mg/kg, ip administered every 2 days and measured after 2 weeks (reference value: 56%); assay type: organism-based; details: in vivo, 336 h
[12] = Toxicity in BALB/c mouse implanted with human A549/T cell assessed as heart damage at 15 to 30 mg/kg, ip administered every 2 days by H and E staining based analysis; assay type: organism-based; details: in vivo, 48 h, dose 15-30 mg/kg, time 2 day
[13] = Toxicity in BALB/c mouse implanted with human A549/T cell assessed as monocyte count at 15 mg/kg, ip administered every 2 days and measured after 2 weeks (reference value: 30.6 %); assay type: organism-based; details: in vivo, 336 h
[14] = Toxicity in BALB/c mouse implanted with human A549/T cell assessed as MCHC level at 15 mg/kg, ip administered every 2 days and measured after 2 weeks (reference value: 570 g/L); assay type: organism-based; details: in vivo, 336 h
A549 [15] = test: Inhibition of colony formation in human A549 cells incubated for 48 hrs by crystal violet staining based analysis; assay type: functional, cell-based; details: dose 0.1-0.5 µM
A549 [16] = test: Antiproliferative activity against human A549 cells assessed as cell growth inhibition incubated for 48 hrs by MTT assay; details: A549, 48 h
A549/TR [17] = test: Antiproliferative activity against human A549/T cell assessed as cell growth inhibition incubated for 48 hrs by MTT assay; assay type: functional, cell-based
NCI-H1299 = test: Antiproliferative activity against human NCI-H1299 cells assessed as cell growth inhibition incubated for 48 hrs by MTT assay; assay type: functional, cell-based; details: NCI-H1299, 48 h
[18] = Toxicity in BALB/c mouse implanted with human A549/T cell assessed as platelet distribution width at 15 mg/kg, ip administered every 2 days and measured after 2 weeks (reference value: 15.3 fL); assay type: organism-based; details: in vivo, 336 h
[19] = Toxicity in BALB/c mouse implanted with human A549/T cell assessed as RBC count at 30 mg/kg, ip administered every 2 days and measured after 2 weeks (reference value: 7.92 10^12/L); assay type: organism-based; details: in vivo, 336 h
[20] = Metabolic stability in human liver microsome assessed as parent compound remaining measured upto 50 mins by LC-MS/MS analysis; assay type: ADME; details: microsomes
[21] = Metabolic stability in human liver microsome assessed as intrinsic clearance measured upto 50 mins by LC-MS/MS analysis; assay type: ADME; details: liver microsomes, read-out: CLH
[22] = Metabolic stability in mouse liver microsome assessed as half life measured upto 50 mins by LC-MS/MS analysis; assay type: ADME; details: liver microsomes
HCC827 = test: Antiproliferative activity against human HCC827 cells assessed as cell growth inhibition incubated for 48 hrs by MTT assay; assay type: functional, cell-based; details: HCC827, 48 h
[23] = Toxicity in BALB/c mouse implanted with human A549/T cell assessed as Plate-letocrit at 15 mg/kg, ip administered every 2 days and measured after 2 weeks (reference value: 0.549%); assay type: organism-based; details: in vivo, 336 h
[24] = Toxicity in BALB/c mouse implanted with human A549/T cell assessed as lung damage at 15 to 30 mg/kg, ip administered every 2 days by H and E staining based analysis; assay type: organism-based; details: in vivo, 48 h, dose 15-30 mg/kg, time 2 day
A549 [25] = test: Induction of apoptosis in human A549 cells at 100 nM incubated for 48 hrs by V-FITC/PI staining based flow cytometry analysis relative to control; assay type: functional
A549/TR [26] = test: Antitumor activity against human A549/T cell xenografted in BALB/c mouse assessed as reduction in tumor growth at 15 mg/kg, ip administered every 2 days; assay type: functional, organism-based; details: time 2.0 day
A549/TR [27] = test: Induction of apoptosis in human A549/T cell at 250 nM incubated for 48 hrs by V-FITC/PI staining based flow cytometry analysis relative to control; assay type: functional
[28] = Toxicity in BALB/c mouse implanted with human A549/T cell assessed as spleen damage at 15 to 30 mg/kg, ip administered every 2 days by H and E staining based analysis; assay type: organism-based; details: in vivo, 48 h, dose 15-30 mg/kg, time 2 day
[29] = Toxicity in BALB/c mouse implanted with human A549/T cell assessed as RBC count at 15 mg/kg, ip administered every 2 days and measured after 2 weeks (reference value: 7.92 10^12/L); assay type: organism-based; details: in vivo, 336 h
[30] = Toxicity in BALB/c mouse implanted with human A549/T cell assessed as kidney damage at 15 to 30 mg/kg, ip administered every 2 days by H and E staining based analysis; assay type: organism-based; details: in vivo, 48 h, dose 15-30 mg/kg, time 2 day
[31] = Toxicity in BALB/c mouse implanted with human A549/T cell assessed as lymphocyte count at 30 mg/kg, ip administered every 2 days and measured after 2 weeks (reference value: 56%); assay type: organism-based; details: in vivo, 336 h
[32] = Toxicity in BALB/c mouse implanted with human A549/T cell assessed as liver damage at 15 to 30 mg/kg, ip administered every 2 days by H and E staining based analysis; assay type: organism-based; details: in vivo, 48 h, dose 15-30 mg/kg, time 2 day
[33] = Toxicity in BALB/c mouse implanted with human A549/T cell assessed as mean platelet volume at 15 mg/kg, ip administered every 2 days and measured after 2 weeks (reference value: 10.1 fL); assay type: organism-based; details: in vivo, 336 h
A549/TR [34] = test: Inhibition of colony formation in human A549/T cell incubated for 48 hrs by crystal violet staining based analysis; assay type: functional; details: dose 0.1-0.5 µM
[35] = Cytotoxicity against human MCF-10A cells assessed as inhibition of cell growth at 10 nM incubated for 48 hrs by MTT assay relative to control; assay type: toxicity, cell-based

Structure (SMILES): COc1ccc(-c2cc(-c3ccc(OC)c(OC)c3OC)c3nc[nH]c3c2)cc1N
- Activity (A549/TR [1]): inactive
- Activity (A549/TR [2]): Dose-dependent-effect
- Activity [3]: Non-toxic
- Activity [4]: 0.425%
- CLint scaled [5]: 87 mL/min/kg
- Activity [6]: 12.1 fL
- Activity [7]: 1.42 10^9/L
- Activity (A549/TR [8]): 22.22%
- Activity [9]: 2.8 10^9/L
- Activity [10]: 505 10^9/L
- Activity [11]: 50.7%
- Activity [12]: Non-toxic
- Activity [13]: 29.5%
- Activity [14]: 589 g/L
- inhibition (A549 [15]): Dose-dependent-effect
- IC50 (A549 [16]): 23 nM
- IC50 (A549/TR [17]): 57 nM
- IC50 (NCI-H1299): 63 nM
- Activity [18]: 17.9 fL
- Activity [19]: 5.94 10^12/L
- Stability [20]: Stable
- CLint scaled [21]: 23 mL/min/kg
- half-life [22]: 63 min
- IC50 (HCC827): 46 nM
- Activity [23]: 0.531%
- Activity [24]: Non-toxic
- Activity (A549 [25]): 44.42%
- Activity (A549/TR [26]): Active
- Activity (A549/TR [27]): 68.13%
- Activity [28]: Non-toxic
- Activity [29]: 7.43 10^12/L
- Activity [30]: Non-toxic
- Activity [31]: 55.2%
- Activity [32]: Non-toxic
- Activity [33]: 10.5 fL
- inhibition (A549/TR [34]): Dose-dependent-effect
- inhibition at 48 h, 0.01 µM [35]: 20%
